Source: ChEMBL document CHEMBL3632488, “Discovery of potent and selective cytotoxic activity of new quinazoline-ureas against TMZ-resistant glioblastoma multiforme (GBM)” (Eur J Med Chem, 2015)
Activity calls are given as the source filed them. The calls are words filed in the database; no cut-off is given here.

Key:
[1] = Antiproliferative activity against human GBM1 cells assessed as reduction in cell viability at 10 uM incubated for 72 hrs by WST-1 method; format: functional; details: GBM1, 72 h
[2] = Antiproliferative activity against human GBM2 cells assessed as reduction in cell viability at 10 uM incubated for 72 hrs by WST-1 method; format: functional; details: GBM2, 72 h
[3] = Antiproliferative activity against human GBM1 cells assessed as reduction in cell viability incubated for 72 hrs by WST-1 method; format: functional, cell-based; details: GBM1, 72 h
[4] = Antiproliferative activity against human GBM2 cells assessed as reduction in cell viability incubated for 72 hrs by WST-1 method; format: functional, cell-based; details: GBM2, 72 h
[5] = Cytotoxicity against normal human astrocytes assessed as cell viability incubated for 72 hrs by WST-1 method; format: cell-based; details: Astrocyte
[6] = Selectivity index, ratio of IC50 for normal human astrocytes to IC50 for human GBM1 cells
[7] = Selectivity index, ratio of IC50 for normal human astrocytes to IC50 for human GBM2 cells
[8] = Antiproliferative activity against human GBM3 cells assessed as reduction in cell viability at 10 uM incubated for 72 hrs by WST-1 method; format: functional; details: GBM3, 72 h
[9] = Antiproliferative activity against human GBM3 cells assessed as reduction in cell viability incubated for 72 hrs by WST-1 method; format: functional, cell-based; details: GBM3, 72 h
[10] = Selectivity index, ratio of IC50 for normal human astrocytes to IC50 for human GBM3 cells
[11] = test system: GBM1; experiment: Induction of apoptosis in human GBM1 cells assessed as loss of mitochondrial membrane potential at 10 uM after 2 hrs by JC-1 staining based fluorescence microscopy; format: functional, cell-based
[12] = test system: GBM2; experiment: Induction of apoptosis in human GBM2 cells assessed as loss of mitochondrial membrane potential at 10 uM after 2 hrs by JC-1 staining based fluorescence microscopy; format: functional, cell-based
[13] = test system: GBM2; experiment: Induction of apoptosis in human GBM2 cells assessed as loss of mitochondrial membrane potential in presence of cyclosporine A at 10 uM after 2 hrs by JC-1 staining based fluorescence microscopy; format: functional, cell-based
[14] = test system: GBM2; experiment: Induction of apoptosis in human GBM2 cells assessed as loss of mitochondrial membrane potential in presence of BAPTA at 10 uM after 2 hrs by JC-1 staining based fluorescence microscopy; format: functional, cell-based
[15] = target: Translocator protein (Rattus norvegicus) (UniProt P16257); experiment: Displacement of [3H]PK11195 from TSPO receptor in Sprague-Dawley rat cerebral cortex membrane at 10 uM by radiometric competitive assay; format: tissue-based
[16] = target: Translocator protein (Rattus norvegicus) (UniProt P16257); experiment: Displacement of [3H]PK11195 from TSPO receptor in Sprague-Dawley rat cerebral cortex membrane at 1 uM by radiometric competitive assay; format: tissue-based
[17] = target: Translocator protein (Rattus norvegicus) (UniProt P16257); experiment: Displacement of [3H]PK11195 from TSPO receptor in Sprague-Dawley rat cerebral cortex membrane at 100 nM by radiometric competitive assay; format: tissue-based
[18] = target: Translocator protein (Rattus norvegicus) (UniProt P16257); experiment: Displacement of [3H]PK11195 from TSPO receptor in Sprague-Dawley rat cerebral cortex membrane at 10 nM by radiometric competitive assay; format: tissue-based
[19] = target: Translocator protein (Rattus norvegicus, UniProt P16257); experiment: Displacement of [3H]PK11195 from TSPO receptor in Sprague-Dawley rat cerebral cortex membrane by radiometric competitive assay; format: tissue-based
[20] = test system: GBM; experiment: Tumoricidal effect in patient derived GBM 464T cells assessed as reduction in neurosphere formation at 0.1 uM after 1 to 2 weeks by 3D tumor clonogenic assay; format: functional, cell-based; details: Homo sapiens
[21] = test system: GBM; experiment: Tumoricidal effect in patient derived GBM 096T cells assessed as reduction in neurosphere formation at 0.1 uM after 1 to 2 weeks by 3D tumor clonogenic assay; format: functional, cell-based; details: Homo sapiens
[22] = test system: GBM; experiment: Tumoricidal effect in patient derived GBM 025T cells assessed as reduction in neurosphere formation at 0.1 uM after 1 to 2 weeks by 3D tumor clonogenic assay; format: functional, cell-based; details: Homo sapiens
[23] = test system: GBM; experiment: Tumoricidal effect in patient derived GBM 448T cells assessed as reduction in neurosphere formation at 0.1 uM after 1 to 2 weeks by 3D tumor clonogenic assay; format: functional, cell-based; details: Homo sapiens
[24] = test system: GBM; experiment: Tumoricidal effect in patient derived GBM 047T cells assessed as reduction in neurosphere formation at 0.1 uM after 1 to 2 weeks by 3D tumor clonogenic assay; format: functional, cell-based; details: Homo sapiens
[25] = test system: GBM; experiment: Tumoricidal effect in patient derived GBM 464T cells assessed as reduction in neurosphere formation at 0.5 uM after 1 to 2 weeks by 3D tumor clonogenic assay; format: functional, cell-based; details: Homo sapiens
[26] = test system: GBM; experiment: Tumoricidal effect in patient derived GBM 096T cells assessed as reduction in neurosphere formation at 0.5 uM after 1 to 2 weeks by 3D tumor clonogenic assay; format: functional, cell-based; details: Homo sapiens
[27] = test system: GBM; experiment: Tumoricidal effect in patient derived GBM 025T cells assessed as reduction in neurosphere formation at 0.5 uM after 1 to 2 weeks by 3D tumor clonogenic assay; format: functional, cell-based; details: Homo sapiens
[28] = test system: GBM; experiment: Tumoricidal effect in patient derived GBM 448T cells assessed as reduction in neurosphere formation at 0.5 uM after 1 to 2 weeks by 3D tumor clonogenic assay; format: functional, cell-based; details: Homo sapiens
[29] = test system: GBM; experiment: Tumoricidal effect in patient derived GBM 047T cells assessed as reduction in neurosphere formation at 0.5 uM after 1 to 2 weeks by 3D tumor clonogenic assay; format: functional, cell-based; details: Homo sapiens
[30] = target: T1, Cytochrome P450 1A2 (Homo sapiens, UniProt P05177); experiment: Inhibition of CYP1A2 (unknown origin) using luciferin tagged substrate preincubated for 10 mins before substrate addition; format: ADME
T1 sequence (P05177 whole entry): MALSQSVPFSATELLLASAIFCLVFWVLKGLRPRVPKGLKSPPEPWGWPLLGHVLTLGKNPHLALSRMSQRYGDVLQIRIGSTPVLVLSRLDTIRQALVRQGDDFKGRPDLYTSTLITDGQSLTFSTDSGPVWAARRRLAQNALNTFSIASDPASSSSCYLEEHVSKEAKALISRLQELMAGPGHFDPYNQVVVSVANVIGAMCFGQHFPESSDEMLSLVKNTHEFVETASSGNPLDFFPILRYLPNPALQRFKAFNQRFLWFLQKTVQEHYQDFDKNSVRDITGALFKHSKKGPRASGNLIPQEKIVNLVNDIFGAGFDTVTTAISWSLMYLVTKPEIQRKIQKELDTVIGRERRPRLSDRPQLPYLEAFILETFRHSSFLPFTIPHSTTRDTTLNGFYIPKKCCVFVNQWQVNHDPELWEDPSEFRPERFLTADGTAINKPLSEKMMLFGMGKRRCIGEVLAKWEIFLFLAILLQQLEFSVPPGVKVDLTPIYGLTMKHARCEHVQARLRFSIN

[31] = target: Cytochrome P450 2C9 (Homo sapiens, UniProt P11712); experiment: Inhibition of CYP2C9 (unknown origin) using luciferin tagged substrate preincubated for 10 mins before substrate addition; format: ADME
[32] = target: Cytochrome P450 2C19 (Homo sapiens, UniProt P33261); experiment: Inhibition of CYP2C19 (unknown origin) using luciferin tagged substrate preincubated for 10 mins before substrate addition; format: ADME
[33] = target: Cytochrome P450 2D6 (Homo sapiens, UniProt P10635); experiment: Inhibition of CYP2D6 (unknown origin) using luciferin tagged substrate preincubated for 10 mins before substrate addition; format: ADME
[34] = target: Cytochrome P450 3A4 (Homo sapiens, UniProt P08684); experiment: Inhibition of CYP3A4 (unknown origin) using luciferin tagged substrate preincubated for 10 mins before substrate addition; format: ADME
[35] = target: Voltage-gated inwardly rectifying potassium channel KCNH2 (Homo sapiens, UniProt Q12809); experiment: Displacement of [3H]astemizole from human ERG potassium channel expressed in HEK293 cell membrane after 1 hr; format: cell membranes
[36] = test system: GBM2; experiment: Induction of apoptosis in human GBM2 cells assessed as loss of mitochondrial membrane potential in presence of PK11195 at 10 uM after 2 hrs by JC-1 staining based fluorescence microscopy; format: functional, cell-based

inhibition [15]: 85%
inhibition [16]: 59%
inhibition [17]: 15%
inhibition [18]: 2%
IC50 [19]: 0.722 µM
IC50 [30]: > 10 µM
IC50 [31]: > 10 µM
IC50 [32]: > 10 µM
IC50 [33]: 5.1 µM
IC50 [34]: > 10 µM
SMILES: O=C(Nc1cc2ncncc2cc1OCc1cccc(Cl)c1)Nc1cccc2ccccc12
inhibition at 10 µM [1]: 100%
inhibition at 10 µM [2]: 99.9%
IC50 [3]: 1.1 µM
IC50 [4]: 1.1 µM
IC50 [5]: > 10 µM
Ratio IC50 [6]: >10.1
Ratio IC50 [7]: >10.1
inhibition at 10 µM [8]: 98.7%
IC50 [9]: 0.8 µM
Ratio IC50 [10]: >10.1
Activity [11]: Active
Activity [12]: Active
Activity [13]: Active
Activity [14]: Active
Activity [20]: Active
Activity [21]: Active
Activity [22]: Active
Activity [23]: inactive
Activity [24]: inactive
Activity [25]: Active
Activity [26]: Active
Activity [27]: Active
Activity [28]: Active
Activity [29]: Active
IC50 [35]: > 10 µM
Activity [36]: Active
